From US20230071840A1, “HETEROCYCLIC GLP-1 AGONISTS” (Gasherbrum Bio, Inc., priority 2020, published 2023)
Like-named read-outs stand apart in the source and are kept apart here.

Target: GLP-1 Receptor (Homo sapiens, UniProt P43220)
Test: GLP-1R agonist cAMP stimulation assay (HEK293/GLP1R/CRE-LUC cells, cAMP dynamic 2 kit)
Type: cell-based
Description: Activation of GLP-1 receptor is known to stimulate cyclic AMP (cAMP) production in cells which indicates primary coupling to the Gas subunit of the G protein heterotrimeric complex.
To optimize functional activity directed toward Gas coupling, a HEK293/CRE-Luc cell line developed by HDB stably expressing the GLP-1 Receptor was used. […] Seal the plate and incubate at 37° C. with 5% CO2 for 30 min.
After incubation the cAMP assay signal was generated using cAMP dynamic 2 Kit (Cisbio). 5 μL cAMP-d2 working solution was added to each well, followed with 5 μL Anti-cAMP antibody-cryptate working solution added to each well using ThermoFisher Multidrop Combi. Incubate at room temperature for 1 hour protected from light.
% Activity=[…]×(mean RLU of test sample−mean RLU of vehicle control)/(mean RLU of MAX control−mean RLU of vehicle control))

[1] = HEK293/CRE-Luc cell line stably expressing the GLP-1 Receptor, 30 min incubation at 37° C., read-out: GLP1R cAMP Stimulation DR: EC50

GLP-1 Receptor, sequence (P43220 24-463, species assumed): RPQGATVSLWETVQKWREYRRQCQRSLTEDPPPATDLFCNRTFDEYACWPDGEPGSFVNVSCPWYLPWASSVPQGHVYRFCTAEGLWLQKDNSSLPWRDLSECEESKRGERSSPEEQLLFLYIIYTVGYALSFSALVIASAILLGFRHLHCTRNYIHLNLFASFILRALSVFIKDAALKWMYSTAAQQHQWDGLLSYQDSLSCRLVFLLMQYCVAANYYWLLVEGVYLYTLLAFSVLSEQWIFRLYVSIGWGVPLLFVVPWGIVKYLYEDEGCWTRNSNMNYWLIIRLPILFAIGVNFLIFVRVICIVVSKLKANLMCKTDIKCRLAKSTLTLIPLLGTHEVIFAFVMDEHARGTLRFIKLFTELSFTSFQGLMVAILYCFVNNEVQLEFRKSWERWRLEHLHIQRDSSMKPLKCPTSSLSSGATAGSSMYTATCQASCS

SMILES | EC50 [1] [nM] | other results
O=C(O)c1ccc2nc(CC3CCN(C(=O)c4cccc(Cc5ccc(Cl)cc5F)n4)CC3)n(C[C@@H]3CCO3)c2n1 [Compound 106a, (S)-2-((1-(6-(4-Chloro-2-fluorobenzyl)picolinoyl)piperidin-4-yl)methyl)-3-(oxetan-2-ylmethyl)-3H-imidazo[4,5-b]pyridine-5-carboxylic acid] | 463 | –
O=C(O)c1ccc2nc(CN3CCC(Oc4nc(Cc5ccc(Cl)cc5F)ccc4F)CC3)n(C[C@@H]3CCO3)c2n1 [Compound 111a, 2-{[4-({6-[(4-chloro-2-fluorophenyl)methyl]-3-fluoropyridin-2-yl}oxy)piperidin-1-yl]methyl}-3-{[(2S)-oxetan-2-yl]methyl}-3H-imidazo[4,5-b]pyridine-5-carboxylic acid] | 0.29 | –
O=C(O)c1ccc2nc(CN3CCC(Oc4ccnc(Cc5ccc(Cl)cc5F)n4)CC3)n(C[C@@H]3CCO3)c2n1 [Compound 113a, 2-{[4-({2-[(4-chloro-2-fluorophenyl)methyl]pyrimidin-4-yl}oxy)piperidin-1-yl]methyl}-3-{[(2S)-oxetan-2-yl]methyl}-3H-imidazo[4,5-b]pyridine-5-carboxylic acid] | 0.038 | –
O=C(O)c1ccc2nc(CN3CCC(Oc4cc(Cc5ccc(Cl)cc5F)ccc4F)CC3)n(C[C@@H]3CCO3)c2n1 [Compound 114a, 2-[(4-{5-[(4-chloro-2-fluorophenyl)methyl]-2-fluorophenoxy}piperidin-1-yl)methyl]-3-{[(2S)-oxetan-2-yl]methyl}-3H-imidazo[4,5-b]pyridine-5-carboxylic acid] | 1.7 | –
O=C(O)c1ccc2nc(CN3CCC(Oc4ccn(Cc5ccc(Cl)cc5F)n4)CC3)n(C[C@@H]3CCO3)c2c1 [Compound 116a, 2-{[4-({1-[(4-chloro-2-fluorophenyl)methyl]-1H-pyrazol-3-yl}oxy)piperidin-1-yl]methyl}-1-{[(2S)-oxetan-2-yl]methyl}-1H-1,3-benzodiazole-6-carboxylic acid] | 2.8 | –
O=C(O)c1ccc2nc(CN3CCC(Cc4cccc(Oc5ccc(Cl)cc5F)n4)CC3)n(C[C@@H]3CCO3)c2n1 [Compound 121a, 2-[(4-{[6-(4-chloro-2-fluorophenoxy)pyridin-2-yl]methyl}piperidin-1-yl)methyl]-3-{[(2S)-oxetan-2-yl]methyl}-3H-imidazo[4,5-b]pyridine-5-carboxylic acid] | 6.5 | –
O=C(O)c1ccc2nc(CN3CCC(Oc4cccc(Cc5ccc(Cl)cc5)n4)CC3)n(C[C@@H]3CCO3)c2n1 [Compound 124a, (S)-2-((4-((6-(4-chlorobenzyl)pyridin-2-yl)oxy)piperidin-1-yl)methyl)-3-(oxetan-2-ylmethyl)-3H-imidazo[4,5-b]pyridine-5-carboxylic acid] | 0.043 | –
O=C(O)c1ccc2nc(CN3CCC(Oc4cccc(Cc5cccc(Cl)c5)n4)CC3)n(C[C@@H]3CCO3)c2n1 [Compound 125a, (S)-2-((4-((6-(3-chlorobenzyl)pyridin-2-yl)oxy)piperidin-1-yl)methyl)-3-(oxetan-2-ylmethyl)-3H-imidazo[4,5-b]pyridine-5-carboxylic acid] | 1.4 | –
O=C(O)c1ccc2nc(CN3CCC(Oc4cccc(Cc5ccccc5Cl)n4)CC3)n(C[C@@H]3CCO3)c2n1 [Compound 126a, (S)-2-((4-((6-(2-chlorobenzyl)pyridin-2-yl)oxy)piperidin-1-yl)methyl)-3-(oxetan-2-ylmethyl)-3H-imidazo[4,5-b]pyridine-5-carboxylic acid] | 1 | –
CC(c1cccc(OC2CCN(Cc3nc4ccc(C(=O)O)nc4n3C[C@@H]3CCO3)CC2)n1)c1ccc(Cl)cc1F (stereo partly drawn) [Compound 128a, 2-{[4-({6-[1-(4-chloro-2-fluorophenyl)ethyl]pyridin-2-yl}oxy)piperidin-1-yl]methyl}-3-{[(2S)-oxetan-2-yl]methyl}-3H-imidazo[4,5-b]pyridine-5-carboxylic acid] | – | EC50 (GLP1R cAMP Stimulation DR: EC50 (nM)): 1.2 nM
O=C(O)c1ccc2nc(CN3CCC(Oc4cccc(C(F)(F)c5ccc(Cl)cc5F)n4)CC3)n(C[C@@H]3CCO3)c2n1 [Compound 129a, 2-{[4-({6-[(4-chloro-2-fluorophenyl)difluoromethyl]pyridin-2-yl}oxy)piperidin-1-yl]methyl}-3-{[(2S)-oxetan-2-yl]methyl}-3H-imidazo[4,5-b]pyridine-5-carboxylic acid] | 0.91 | EC50 (HEK293/CRE-Luc cell line stably expressing the GLP-1 Receptor, 30 min incubation at 37° C., read-out: GLP1R cAMP Stimulation DR: pEC50 (converted)): 1 nM
O=C(O)c1ccc2nc(CN3CCC(Oc4cccc(Cc5ccc(Cl)cc5F)n4)C3)n(C[C@@H]3CCO3)c2n1 (stereo partly drawn) [Compound 130a, 2-{[3-({6-[(4-chloro-2-fluorophenyl)methyl]pyridin-2-yl}oxy)pyrrolidin-1-yl]methyl}-3-{[(2S)-oxetan-2-yl]methyl}-3H-imidazo[4,5-b]pyridine-5-carboxylic acid] | 53 | –
CC(=O)Nc1ccc2nc(CN3CCC(Oc4cccc(Cc5ccc(Cl)cc5F)n4)CC3)n(C[C@@H]3CCO3)c2c1 [Compound 134a, N-(2-{[4-({6-[(4-chloro-2-fluorophenyl)methyl]pyridin-2-yl}oxy)piperidin-1-yl]methyl}-1-{[(2S)-oxetan-2-yl]methyl}-1H-1,3-benzodiazol-6-yl)acetamide] | 58 | –
O=C(O)c1ccc2nc(CN3CCC(c4cccc5nc(Cc6ccc(Cl)cc6F)oc45)CC3)n(C[C@@H]3CCO3)c2n1 [Compound 143a, (S)-2-((4-(2-(4-chloro-2-fluorobenzyl)benzo[d]oxazol-7-yl)piperidin-1-yl)methyl)-3-(oxetan-2-ylmethyl)-3H-imidazo[4,5-b]pyridine-5-carboxylic acid] | 0.53 | –

The next lines start with results.

EC50 [1] [nM] | SMILES | other results
2.4 | Cc1cn(Cc2ccc(Cl)cc2F)nc1OC1CCN(Cc2nc3ccc(C(=O)O)nc3n2C[C@@H]2CCO2)CC1 [Compound 133a, 2-{[4-({1-[(4-chloro-2-fluorophenyl)methyl]-4-methyl-1H-pyrazol-3-yl}oxy)piperidin-1-yl]methyl}-3-{[(2S)-oxetan-2-yl]methyl}-3H-imidazo[4,5-b]pyridine-5-carboxylic acid] | –
1.8 | N#Cc1ccc(Cc2cccc(OC3CCN(Cc4nc5ccc(C(=O)O)cc5n4C[C@@H]4CCO4)CC3)n2)c(F)c1 [Compound 135a, 2-{[4-({6-[(4-cyano-2-fluorophenyl)methyl]pyridin-2-yl}oxy)piperidin-1-yl]methyl}-1-{[(2S)-oxetan-2-yl]methyl}-1H-1,3-benzodiazole-6-carboxylic acid] | –
0.44 | N#Cc1ccc(Cc2cccc(OC3CCN(Cc4nc5ccc(C(=O)O)nc5n4C[C@@H]4CCO4)CC3)n2)c(F)c1 [Compound 136a, 2-{[4-({6-[(4-cyano-2-fluorophenyl)methyl]pyridin-2-yl}oxy)piperidin-1-yl]methyl}-3-{[(2S)-oxetan-2-yl]methyl}-3H-imidazo[4,5-b]pyridine-5-carboxylic acid] | –
51 | O=C(O)c1ccc2nc(CN3CCC(Oc4nc(Cc5ccc(Cl)cc5F)ccc4Cl)CC3)n(C[C@@H]3CCO3)c2n1 [Compound 137a, 2-{[4-({3-chloro-6-[(4-chloro-2-fluorophenyl)methyl]pyridin-2-yl}oxy)piperidin-1-yl]methyl}-3-{[(2S)-oxetan-2-yl]methyl}-3H-imidazo[4,5-b]pyridine-5-carboxylic acid] | –
1.2 | O=C(O)c1ccc2nc(CN3CCC(n4ccc5ccc(Cc6ccc(Cl)cc6F)nc54)CC3)n(C[C@@H]3CCO3)c2n1 [Compound 140a, 2-[(4-{6-[(4-chloro-2-fluorophenyl)methyl]-1H-pyrrolo[2,3-b]pyridin-1-yl}piperidin-1-yl)methyl]-3-{[(2S)-oxetan-2-yl]methyl}-3H-imidazo[4,5-b]pyridine-5-carboxylic acid] | –
1.7 | O=C(O)c1ccc2nc(CN3CCC(c4cccc5cn(Cc6ccc(Cl)cc6F)nc45)CC3)n(C[C@@H]3CCO3)c2n1 [Compound 142a, (S)-2-((4-(2-(4-chloro-2-fluorobenzyl)-2H-indazol-7-yl)piperidin-1-yl)methyl)-3-(oxetan-2-ylmethyl)-3H-imidazo[4,5-b]pyridine-5-carboxylic acid] | –
4.8 | O=C(O)c1ccc2nc(CN3CCC(Oc4ccc(=O)n(Cc5ccc(Cl)cc5F)n4)CC3)n(C[C@@H]3CCO3)c2n1 [Compound 144a, 2-{[4-({1-[(4-chloro-2-fluorophenyl)methyl]-6-oxo-1,6-dihydropyridazin-3-yl}oxy)piperidin-1-yl]methyl}-3-{[(2S)-oxetan-2-yl]methyl}-3H-imidazo[4,5-b]pyridine-5-carboxylic acid] | –
3.4 | O=C(O)c1ccc2nc(CN3CCC(Oc4cccc(Cc5ccc(C(F)(F)F)cc5)n4)CC3)n(C[C@@H]3CCO3)c2n1 [Compound 145a, 3-{[(2S)-oxetan-2-yl]methyl}-2-({4-[(6-{[4-(trifluoromethyl)phenyl]methyl}pyridin-2-yl)oxy]piperidin-1-yl}methyl)-3H-imidazo[4,5-b]pyridine-5-carboxylic acid] | –
0.62 | O=C(O)c1ccc2nc(CN3CCC(Oc4cccc(Cc5ccc(C6CC6)cc5)n4)CC3)n(C[C@@H]3CCO3)c2n1 [Compound 146a, 2-{[4-({6-[(4-cyclopropylphenyl)methyl]pyridin-2-yl}oxy)piperidin-1-yl]methyl}-3-{[(2S)-oxetan-2-yl]methyl}-3H-imidazo[4,5-b]pyridine-5-carboxylic acid] | –
4.4 | O=C(O)c1ccc2nc(CN3CCC(Oc4cccc(CN5Cc6ccccc6C5=O)n4)CC3)n(C[C@@H]3CCO3)c2n1 [Compound 148a, 3-{[(2S)-oxetan-2-yl]methyl}-2-{[4-({6-[(1-oxo-2,3-dihydro-1H-isoindol-2-yl)methyl]pyridin-2-yl}oxy)piperidin-1-yl]methyl}-3H-imidazo[4,5-b]pyridine-5-carboxylic acid] | –
